Molecular target: T1, histamine H4 receptor (Homo sapiens, UniProt Q9H3N8)
T1 construct: expressed in transfected cells; host or cells: HEK293SFM cells (membrane preparation)
Experiment: Inhibition of histamine H4 receptor (Table A1; H4 membrane binding assay)
Conditions: for IC50: histamine H4 receptor, "> a" = exceeds experiment limit
In short: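 Radioligand binding was measured by filtration through PEI-treated GF/B filters with scintillation counting, using 1000× unlabeled ligand to define nonspecific binding. Membranes were prepared from HEK293SFM cells recombinantly expressing human H4 in ice-cold 50 mM Tris-HCl, pH 7.5, plus protease inhibitors.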

| Compound | IC50 | inhibition at 1 µM |
| --- | --- | --- |
| CN1CCN(c2cc(N3CCc4ccc(N5CCN(C(=O)c6ccco6)CC5)cc4C3)nc(N)n2)CC1 [Example 32, 4-{7-[4-(2-Furoyl)piperazin-1-yl]-3,4-dihydroisoquinolin-2(1H)-yl}-6-(4-methylpiperazin-1-yl)pyrimidin-2-amine] | 178 nM |  |
| CC1Cc2ccc(C3CCN(C(=O)C4CC4)CC3)cc2CN1c1cc(N2CCN(C)CC2)nc(N)n1 (stereo not drawn) [Example 150, 4-[7-[1-(Cyclopropylcarbonyl)piperidin-4-yl]-3-methyl-3,4-dihydroisoquinolin-2(1H)-yl]-6-(4-methylpiperazin-1-yl)pyrimidin-2-amine] | 22.5 nM |  |
| CC1Cc2ccc(C3=CCN(C(=O)NC4CCCC4)CC3)cc2CN1c1cc(N2CCN(C)CC2)nc(N)n1 (stereo not drawn) [Example 136, 4-{2-[2-Amino-6-(4-methylpiperazin-1-yl)pyrimidin-4-yl]-3-methyl-1,2,3,4-tetrahydroisoquinolin-7-yl}-N-cyclopentyl-3,6-dihydropyridine-1(2H)-carboxamide] | 68 nM |  |
| CN1CCN(c2cc(N3CCc4ccc(Oc5ccccc5Cl)cc4C3)nc(N)n2)CC1 [Example 17, 4-[7-(2-Chlorophenoxy)-3,4-dihydroisoquinolin-2(1H)-yl]-6-(4-methylpiperazin-1-yl)pyrimidin-2-amine] | 285 nM |  |
| CNC(=O)c1ccc(-c2cc3c(cc2F)CCN(c2cc(N4CCN(C)CC4)nc(N)n2)C3)cn1 [Example 127, 5-{2-[2-Amino-6-(4-methylpiperazin-1-yl)pyrimidin-4-yl]-6-fluoro-1,2,3,4-tetrahydroisoquinolin-7-yl}-N-methylpyridine-2-carboxamide] | 104 nM |  |
| CN1CCN(c2cc(N3CCc4ccc(N5CCN(C(=O)Nc6ccc(Cl)cc6)CC5)cc4C3)nc(N)n2)CC1 [Example 33, 4-{2-[2-Amino-6-(4-methylpiperazin-1-yl)pyrimidin-4-yl]-1,2,3,4-tetrahydroisoquinolin-7-yl}-N-(4-chlorophenyl)piperazine-1-carboxamide] | 266 nM |  |
| CN1CCN(c2cc(-c3ccc4c(c3)CN(c3cc(N5CCN(C)CC5)nc(N)n3)CC4)ccn2)CC1 [Example 5, 4-(4-Methylpiperazin-1-yl)-6-[7-[2-(4-methylpiperazin-1-yl)pyridin-4-yl]-3,4-dihydroisoquinolin-2(1H)-yl]pyrimidin-2-amine] | 128 nM |  |
| CC1Cc2ccc(-c3cnn(CC(N)=O)c3)cc2CN1c1cc(N2CCN(C)CC2)nc(N)n1 (single isomer, unassigned) [Example 113, 2-(4-{2-[2-Amino-6-(4-methylpiperazin-1-yl)pyrimidin-4-yl]-3-methyl-1,2,3,4-tetrahydroisoquinolin-7-yl}-1H-pyrazol-1-yl)acetamide] | 72 nM |  |
| CN1CCN(c2cc(N3CCCc4ccc(O)cc43)nc(N)n2)CC1 [Example 21, 1-[2-Amino-6-(4-methylpiperazin-1-yl)pyrimidin-4-yl]-1,2,3,4-tetrahydroquinolin-7-ol] | 181 nM |  |
| CC1Cc2ccc(-c3cnn(CC(=O)N(C)C)c3)cc2CN1c1cc(N2CCN(C)CC2)nc(N)n1 (stereo not drawn) [Example 80, 2-(4-{2-[2-Amino-6-(4-methylpiperazin-1-yl)pyrimidin-4-yl]-3-methyl-1,2,3,4-tetrahydroisoquinolin-7-yl}-1H-pyrazol-1-yl)-N,N-dimethylacetamide] | 106 nM |  |
| CC1Cc2ccc(-c3ccc(C(=O)NCCO)nc3)cc2CN1c1cc(N2CCN(C)CC2)nc(N)n1 (stereo not drawn) [Example 59, 5-{2-[2-Amino-6-(4-methylpiperazin-1-yl)pyrimidin-4-yl]-3-methyl-1,2,3,4-tetrahydroisoquinolin-7-yl}-N-(2-hydroxyethyl)pyridine-2-carboxamide] | 54 nM |  |
| CNC(=O)c1ccc(N2CCN(c3ccc4c(c3)CN(c3cc(N5CCN(C)CC5)nc(N)n3)CC4)C(=O)C2)nc1 [Example 44, 6-(4-{2-[2-Amino-6-(4-methylpiperazin-1-yl)pyrimidin-4-yl]-1,2,3,4-tetrahydroisoquinolin-7-yl}-3-oxopiperazin-1-yl)-N-methylnicotinamide] | 93 nM |  |
| COC(=O)N1CCC(c2ccc3c(c2)CN(c2cc(N4CCN(C)CC4)nc(N)n2)C(C)C3)CC1 (stereo not drawn) [Example 147, Methyl 4-{2-[2-amino-6-(4-methylpiperazin-1-yl)pyrimidin-4-yl]-3-methyl-1,2,3,4-tetrahydroisoquinolin-7-yl}piperidine-1-carboxylate] | 12.1 nM |  |
| CC1Cc2ccc(-c3cccc(C(=O)N(C)C)n3)cc2CN1c1cc(N2CCN(C)CC2)nc(N)n1 (single isomer, unassigned) [Example 76, 6-{2-[2-Amino-6-(4-methylpiperazin-1-yl)pyrimidin-4-yl]-3-methyl-1,2,3,4-tetrahydroisoquinolin-7-yl}-N,N-dimethylpyridine-2-carboxamide] |  | 66% |
| CNC(=O)c1ccc(C2CCN(c3ccc4c(c3)CN(c3cc(N5CCN(C)CC5)nc(N)n3)CC4)CC2)cc1 [Example 39, 4-(1-{2-[2-Amino-6-(4-methylpiperazin-1-yl)pyrimidin-4-yl]-1,2,3,4-tetrahydroisoquinolin-7-yl}piperidin-4-yl)-N-methylbenzamide] | 51 nM |  |
| CC1Cc2ccc(-c3ccc(C(=O)N4CCC4)nc3)cc2CN1c1cc(N2CCN(C)CC2)nc(N)n1 (single isomer, unassigned) [Example 53A, 4-[7-[6-(azetidin-1-ylcarbonyl)pyridin-3-yl]-3-methyl-3,4-dihydroLsoquinolin-2(1H)-yl]-6-(4-methylpiperazin-1-yl)pyrimidin-2-amine] | 201 nM |  |
| CCOC(=O)N1CCN(c2ccc3c(c2)CN(c2cc(N4CCN(C)CC4)nc(N)n2)CC3)CC1 [Example 30, Ethyl 4-{2-[2-amino-6-(4-methylpiperazin-1-yl)pyrimidin-4-yl]-1,2,3,4-tetrahydroisoquinolin-7-yl}piperazine-1-carboxylate] | 282 nM |  |
| CC1Cc2ccc(-c3ccnc(C(=O)N4CCC(N(C)C)C4)c3)cc2CN1c1cc(N2CCN(C)CC2)nc(N)n1 (single isomer, unassigned) [Example 67A, 4-[7-(2-{[3-(dimethylamino)pyrrolidin-1-yl]carbonyl}pyridin-4-yl)-3-methyl-3,4-dihydroisoquinolin-2(1H)-yl]-6-(4-methylpiperazin-1-yl)pyrimidin-2-amine] | 56 nM |  |
| CC(C)OC(=O)N1CCC(c2ccc3c(c2)CN(c2cc(N4CCN(C)CC4)nc(N)n2)C(C)C3)CC1 (stereo not drawn) [Example 139, Isopropyl 4-{2-[2-amino-6-(4-methylpiperazin-1-yl)pyrimidin-4-yl]-3-methyl-1,2,3,4-tetrahydroisoquinolin-7-yl}piperidine-1-carboxylate] | 54 nM |  |
| CC1Cc2ccc(-c3ccn(Cc4ccncc4)n3)cc2CN1c1cc(N2CCN(C)CC2)nc(N)n1 (single isomer, unassigned) [Example 157, 4-(4-Methylpiperazin-1-yl)-6-[3-methyl-7-[1-(pyridin-4-ylmethyl)-1H-pyrazol-3-yl]-3,4-dihydroisoquinolin-2(1H)-yl]pyrimidin-2-amine] | 8.7 nM |  |

Continued, values first:

| IC50 | inhibition at 1 µM | Compound |
| --- | --- | --- |
|  | 72% | CC(C)NC(=O)c1cc(-c2ccc3c(c2)CN(c2cc(N4CCN(C)CC4)nc(N)n2)C(C)C3)cn1C (single isomer, unassigned) [Example 90B, 4-{2-[2-Amino-6-(4-methylpiperazin-1-yl)pyrimidin-4-yl]-3-methyl-1,2,3,4-tetrahydroisoquinolin-7-yl}-N-isopropyl-1-methyl-1H-pyrrole-2-carboxamide] |
|  | 56% | CC1Cc2ccc(-c3cnn(C4CCS(=O)(=O)C4)c3)cc2CN1c1cc(N2CCN(C)CC2)nc(N)n1 (stereo not drawn) [Example 98B, 4-[7-[1-(1,1-dioxidotetrahydro-3-thienyl)-1H-pyrazol-4-yl]-3-methyl-3,4-dihydroisoquinolin-2(1H)-yl]-6-(4-methylpiperazin-1-yl)pyrimidin-2-amine] |
|  | 52% | CC1Cc2ccc(-c3ccn(CCO)n3)cc2CN1c1cc(N2CCN(C)CC2)nc(N)n1 (single isomer, unassigned) [Example 84B, 2-(3-{2-[2-Amino-6-(4-methylpiperazin-1-yl)pyrimidin-4-yl]-3-methyl-1,2,3,4-tetrahydroisoquinolin-7-yl}-1H-pyrazol-1-yl)ethanol] |
|  | 76% | CC1Cc2ccc(-c3cc(C(=O)NC4CC4)n(C)c3)cc2CN1c1cc(N2CCN(C)CC2)nc(N)n1 (single isomer, unassigned) [Example 91B, 4-{2-[2-Amino-6-(4-methylpiperazin-1-yl)pyrimidin-4-yl]-3-methyl-1,2,3,4-tetrahydroisoquinolin-7-yl}-N-cyclopropyl-1-methyl-1H-pyrrole-2-carboxamide] |
| 32 nM |  | CC1Cc2ccc(-c3ccnc(C(=O)N(C)CCN(C)C)c3)cc2CN1c1cc(N2CCN(C)CC2)nc(N)n1 (single isomer, unassigned) [Example 68B, 4-{2-[2-amino-6-(4-methylpiperazin-1-yl)pyrimidin-4-yl]-3-methyl-1,2,3,4-tetrahydroisoquinolin-7-yl}-N-[2-(dimethylamino)ethyl]-N-methylpyridine-2-carboxamide] |
| 33 nM |  | CC1Cc2ccc(-c3ccn(CCC#N)n3)cc2CN1c1cc(N2CCN(C)CC2)nc(N)n1 (single isomer, unassigned) [Example 83A, 3-(3-{2-[2-Amino-6-(4-methylpiperazin-1-yl)pyrimidin-4-yl]-3-methyl-1,2,3,4-tetrahydroisoquinolin-7-yl}-1H-pyrazol-1-yl)propanenitrile] |
| 25 nM |  | CCNC(=O)c1cc(-c2ccc3c(c2)CN(c2cc(N4CCN(C)CC4)nc(N)n2)C(C)C3)cn1C (single isomer, unassigned) [Example 88A, 4-{2-[2-Amino-6-(4-methylpiperazin-1-yl)pyrimidin-4-yl]-3-methyl-1,2,3,4-tetrahydroisoquinolin-7-yl}-N-ethyl-1-methyl-1H-pyrrole-2-carboxamide] |

From patent US20130244999A1, “Substituted Heterocyclic Compounds” (Incyte Corporation, priority 2008, published 2013)
